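Assay format: 96-well plates, 48-hour exposure. Abbreviation: GI50, concentration required for 50% inhibition of growth.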 Activity calls are given as the source filed them. Cut-off read from the data, not from the text of the source: active = GI50 up to about 1.1 µM and inactive = higher.
Experiments:
Assay in all cases: NCI anticancer screen, dose series, 48 h
[1] = test system: M19-MEL
[2] = test system: EKVX
[3] = test system: DMS-114
[4] = test system: OVCAR-3
[5] = test system: LXFL 529
[6] = test system: NCI-H23
[7] = test system: NCI-H522
[8] = test system: SK-MEL-28
[9] = test system: RXF 393
[10] = test system: KM12
[11] = test system: NCI-H226
[12] = test system: SF-295
[13] = test system: LOX IMVI
[14] = test system: HOP-92
[15] = test system: OVCAR-8
[16] = test system: SW-620
[17] = test system: HOP-18
[18] = test system: KM-20L2
[19] = test system: SK-MEL-2
[20] = test system: OVCAR-5
[21] = test system: HCC 2998
[22] = test system: RPMI-8226
[23] = test system: SF-268
[24] = test system: HOP-62
[25] = test system: OVCAR-4
[26] = test system: MOLT-4
[27] = test system: HCT-116
[28] = test system: Malme-3M
[29] = test system: NCI-H460
[30] = test system: SNB-78
[31] = test system: UACC-257
[32] = test system: HCT-15
[33] = test system: COLO 205
[34] = test system: CAKI-1
[35] = test system: HL-60
[36] = test system: SR
[37] = test system: CCRF-CEM
[38] = test system: SK-OV-3
[39] = test system: XF498
[40] = test system: DMS-273
[41] = test system: A549
[42] = test system: SN12C
[43] = test system: SF-539
[44] = test system: UACC-62
[45] = test system: HT-29
[46] = test system: DLD-1
[47] = test system: SK-MEL-5
[48] = test system: ACHN
[49] = test system: M14
[50] = test system: U-251
[51] = test system: TK-10
[52] = test system: 786-0
[53] = test system: SNB-75
[54] = test system: SNB-19
[55] = test system: IGROV-1
[56] = test system: K562
[57] = test system: A498
[58] = test system: UO-31

Cc1cc(C)c(-n2c(-c3ccccc3)cs/c2=N\N=C2C=C(C(C)(C)C)C(=O)C(C(C)(C)C)=C2)c(C)c1
GI50 [1]: > 100 µM (inactive) | GI50 [2]: 91.4 µM (inactive) | GI50 [3]: 47.4 µM (inactive) | GI50 [4]: > 100 µM (inactive) | GI50 [5]: 75.5 µM (inactive) | GI50 [6]: 60.5 µM (inactive) | GI50 [7]: 85.1 µM (inactive) | GI50 [8]: > 100 µM (inactive) | GI50 [9]: > 100 µM (inactive) | GI50 [10]: > 100 µM (inactive) | GI50 [11]: > 100 µM (inactive) | GI50 [12]: > 100 µM (inactive) | GI50 [13]: 83.8 µM (inactive) | GI50 [14]: 39 µM (inactive) | GI50 [15]: > 100 µM (inactive) | GI50 [16]: > 100 µM (inactive) | GI50 [17]: > 100 µM (inactive) | GI50 [18]: > 100 µM (inactive) | GI50 [19]: > 100 µM (inactive) | GI50 [20]: > 100 µM (inactive) | GI50 [21]: > 100 µM (inactive) | GI50 [22]: > 100 µM (inactive) | GI50 [23]: > 100 µM (inactive) | GI50 [24]: > 100 µM (inactive) | GI50 [25]: > 100 µM (inactive) | GI50 [26]: > 100 µM (inactive) | GI50 [27]: 64.6 µM (inactive) | GI50 [28]: > 100 µM (inactive) | GI50 [29]: > 100 µM (inactive) | GI50 [30]: > 100 µM (inactive) | GI50 [31]: > 100 µM (inactive) | GI50 [32]: > 100 µM | GI50 [33]: > 100 µM (inactive) | GI50 [34]: > 100 µM (inactive) | GI50 [35]: 50.5 µM (inactive) | GI50 [36]: > 100 µM (inactive) | GI50 [37]: > 100 µM (inactive) | GI50 [38]: > 100 µM (inactive) | GI50 [39]: > 100 µM (inactive) | GI50 [40]: > 100 µM (inactive) | GI50 [41]: > 100 µM (inactive) | GI50 [42]: > 100 µM (inactive) | GI50 [43]: > 100 µM (inactive) | GI50 [44]: 60.3 µM (inactive) | GI50 [45]: > 100 µM (inactive) | GI50 [46]: > 100 µM (inactive) | GI50 [47]: 94 µM (inactive) | GI50 [48]: 90.2 µM (inactive) | GI50 [49]: > 100 µM (inactive) | GI50 [50]: > 100 µM (inactive) | GI50 [51]: > 100 µM (inactive) | GI50 [52]: > 100 µM (inactive) | GI50 [53]: 21.3 µM (inactive) | GI50 [54]: > 100 µM (inactive) | GI50 [55]: > 100 µM (inactive) | GI50 [56]: 55.8 µM (inactive)

C=C/C=C(\NC(=O)C(Cl)(Cl)Cl)[Si](C)(C)C
GI50 [1]: > 100 µM (inactive) | GI50 [2]: > 100 µM (inactive) | GI50 [3]: > 100 µM (inactive) | GI50 [4]: > 100 µM (inactive) | GI50 [5]: > 100 µM (inactive) | GI50 [6]: > 100 µM (inactive) | GI50 [7]: > 100 µM (inactive) | GI50 [8]: > 100 µM (inactive) | GI50 [9]: > 100 µM (inactive) | GI50 [10]: > 100 µM (inactive) | GI50 [11]: > 100 µM (inactive) | GI50 [12]: > 100 µM (inactive) | GI50 [13]: > 100 µM (inactive) | GI50 [14]: > 100 µM (inactive) | GI50 [15]: > 100 µM (inactive) | GI50 [16]: > 100 µM (inactive) | GI50 [17]: > 100 µM (inactive) | GI50 [57]: > 100 µM (inactive) | GI50 [18]: > 100 µM (inactive) | GI50 [19]: > 100 µM (inactive) | GI50 [20]: > 100 µM (inactive) | GI50 [21]: > 100 µM (inactive) | GI50 [22]: > 100 µM (inactive) | GI50 [23]: > 100 µM (inactive) | GI50 [24]: > 100 µM (inactive) | GI50 [25]: > 100 µM (inactive) | GI50 [26]: > 100 µM (inactive) | GI50 [27]: > 100 µM (inactive) | GI50 [28]: > 100 µM (inactive) | GI50 [29]: > 100 µM (inactive) | GI50 [30]: > 100 µM (inactive) | GI50 [31]: > 100 µM (inactive) | GI50 [32]: > 100 µM | GI50 [33]: > 100 µM (inactive) | GI50 [35]: > 100 µM (inactive) | GI50 [36]: > 100 µM (inactive) | GI50 [37]: > 100 µM (inactive) | GI50 [38]: > 100 µM (inactive) | GI50 [39]: > 100 µM (inactive) | GI50 [40]: > 100 µM (inactive) | GI50 [41]: > 100 µM (inactive) | GI50 [42]: > 100 µM (inactive) | GI50 [43]: > 100 µM (inactive) | GI50 [44]: > 100 µM (inactive) | GI50 [45]: > 100 µM (inactive) | GI50 [46]: > 100 µM (inactive) | GI50 [47]: > 100 µM (inactive) | GI50 [48]: > 100 µM (inactive) | GI50 [49]: > 100 µM (inactive) | GI50 [50]: > 100 µM (inactive) | GI50 [51]: > 100 µM (inactive) | GI50 [52]: > 100 µM (inactive) | GI50 [53]: > 100 µM (inactive) | GI50 [54]: > 100 µM (inactive) | GI50 [55]: > 100 µM (inactive) | GI50 [58]: > 100 µM (inactive) | GI50 [56]: > 100 µM (inactive)

From ChEMBL document CHEMBL1201862, “PubChem BioAssay data set” (2004)
